From patent publication US3933800A, “New 3-formylrifamycin SV derivatives” (Gruppo Lepetit S.p.A., priority 1971, dated 1976)

Legend:
[1] = system: RNA dependent DNA polymerase of murine sarcoma virus (endogenous) and DNA dependent DNA polymerase activity of purified enzymes; assay: inhibition of murine sarcoma virus DNA polymerase (3H-dTTP incorporation); format: biochemical; conditions: at a concentration of 2-100 μg/ml or less; 60 min
Protocol: The inhibiting activity of the invention compounds has been tested on RNA dependent DNA polymerase of murine sarcoma virus (endogenous) and DNA dependent DNA polymerase activity of purified enzymes. The inhibition was tested according to the methods described by C. Gurgo et al., Nature, New Biology, 229, 111, 1971.
The effect of different concentrations of drugs on polymerase activity was determined by following 3H-dTTP (tritiated thymine deoxyriboside triphosphate) incorporation into the insoluble fraction. A typical example of the experimental procedures is the following: Isolation of virus and purification of viral polymerase
Virus was isolated and purified from murine sarcoma virus (Moloney isolate) transformed rat cells (78Al cells) and murine sarcoma virus (Harvey isolate) transformed mouse cells (MEH cells) as previously described (Green et al., Proc. Nat. Acad. Sci. USA 67. 385-393, 1970, Rokutanda et al., Nature, 227, 1026-1028, 1970). The virion polymerase was purified 20-40 fold by incubation of purified virus with 0.5% NP-40 (nonidet P-40) in 0.1 M NaCl, 0.01 M Tris buffer (pH 7.6), 0.001 M EDTA for 5 minutes at room temperature and zonal centrifugration in 15-30% sucrose gradients in 10 mM (millimoles) sodium phosphate buffer (pH 7.4), 2.5 mM MgCl2, 10 mM dithiothreitol, and 5% glycerol for 24 hours at 38.000 rpm in a Spinco SW41 rotor. The peak fractions of enzyme activity (13-17) of twenty-two fractions collected, were pooled, and stored at -70°C in 30% glycerol. DNA polymerase assay
Enzyme incubation was performed for 1 hour at 37°C in 100 μl of reaction mixture containing 40 mM Tris buffer (pH 8.0), 5mM dithiothreitol, 30 mM NaCl, 2.5 mM MgCl2, 0.1 mM daTP, dGTP, dCTP, and 10 μCi of ^3 H-dTTP (12-18 Ci/mmole) as described by Green et al., in Proc. Nat. Acad. Sci. US 67, 385-393, 1970. The reaction was terminated by the addition of 150 μ l of 1N perchloric acid. Calf thymus DNA (100 μg) were added as carrier; the radioactive DNA product was processed as described in the two papers mentioned above.
Endogenous RNA dependent DNA polymerase activity was measured after the addition of 0.01% PN-40 to purified virus at the time of assay. The DNA polymerase activity of purified viral polymerase was measured with 2 μg of poly d(A-T) as template and no NP-40. Test for inhibition by rifamycin derivatives
Rifamycin derivatives were dissolved in dimethylsulfoxide (DMSO) at a concentration of 5 mg/ml and stored at 4°C. Inhibition of the endogenous RNA dependent DNA polymerase activity was tested by adding 2 μ l of derivative appropriately diluted in DMSO or 2 μ l of DMSO (control) to the assay mixture prior to addition to disrupted virus which contained 15 to 30 μg of viral protein. Enzyme incubation was performed for 60 minutes at 37°C. Inhibition of purified enzyme was tested by pre-incubation of 2 μl of derivative of DMSO with 30 μl of enzyme (1 to 2 μg protein) for 10 minutes at 37°C; then 70 μ l of substrate mixture were added and the mixture further incubated and processed as described above.

[2] = system: polymerase from murine leukemia virus (reverse transcriptase); assay: inhibition of polymerase from murine leukemia virus; format: biochemical; conditions: endogenous 70S RNA template
Protocol: The inhibiting effect of reverse transcriptase has been confirmed also by test on polymerase from murine leukemia virus. Murine leukemia virus RNA polymerase was prepared from TRITON X 100 disrupted virions as described by Gallo et al., Nature, New Biology, 232, 141 (1971). Virus of both Rauscher and Moloney types were previously purified by banding in the 1.16 g/ml region of a sucrose density gradient after initial low speed centrifugation to remove cellular debris and cushioning on 60% sucrose through 20% sucrose. Final concentration of virus preparation was at 10^11 particles/ml. As template endogenous 70S RNA was used.

leukemic polymerase = assay: inhibition of DNA polymerase of human leukemic blood lymphoblasts; format: biochemical; conditions: synthetic RNA template (poly rA.rU)
Text: Similar results were found by using tumor cell polymerases of human origin. In this case the inhibiting activity was studied also on normal cells polymerases to characterize a selective effect. Representative rifamycin derivatives of formula I have been evaluated for their effects on […] purified DNA polymerase isolated from (I) human normal (PHA stimulated) blood lymphocytes (2) a lymphoblast cell line (derived from a normal donor) and (3) human leukemic blood lymphoblast. Synthetic and/or native templates were used.
Leukemic lymphoblasts were isolated from the peripheral blood of patients with acute lymphocytic leukemia (ALL) by leukophoresis. The cells were washed and erythrocytes removed by hypotonic lysis. Normal lymphocytes were obtained from the peripheral blood from healthy donors after removal of granulocytes by nylon column chromatography. They were stimulated with phytohemagglutinin (PHA) for 72 hours as described before (Gallo et al., Nature, 228, 927, 1970; Gallo et al. Science, 165, 400, 1968) in order to maximize DNA polymerase activity.
Cellular DNA polymerase were extracted and purified from normal blood (PHA stimulated) lymphocytes, and leukemic blood lymphocytes and 1788 lymphoid cells by homogenization in hypotonic buffer followed by Triton X 100 and/or high salt extraction of the extraylsosomal pellet. After differential centrifugation cellular extracts were further purified by DEAE cellulose, phosphocellulose, and Sephadex G 200 column chromatography. DNA polymerase Assays
DNA polymerase assays were carried out in a final volume of 100 μ l. The assay mixture contained Tris-HCl buffer, pH 8.3, 50 mM; MgAc, 6.0 mM; dithiothretiol, 8.0 mM; NaCl, 60 mM. […]
In these cases reactions were initiated by adding enzyme to the complete reaction mixture which included the inhibitor. […] The products were collected on Millipore filter, washed extensively with 5% TCA and 1 ml. of DMSO-ethanol-0.1 M NaCl mixture (0.5:70;29.5), dried and counted in 2 ml. of BBS3 (Beckman) and 10 ml. of liquifluor (New England Nuclear) in a Packard liquid scintillation counter.

[3] = system: bacteria which had become resistant to the other rifamycins; conditions: namely rifampicin; cited from earlier work
bacteria = conditions: cited from earlier work

| Compound | incorporation of 3H-dTTP relative to control tests [1] | concentration giving inhibition of about 50 percent [2] | susceptibility compared with synthetic DNA template (leukemic polymerase) | effect against resistant bacteria [3] | antibacterial activity (bacteria) |
| --- | --- | --- | --- | --- | --- |
| CCCCON=Cc1c2c(O)c3c(O)c(C)c4c(c3c1O)C(=O)C(C)(OC=CC(OC)C(C)C(OC(C)=O)C(C)C(O)C(C)C(O)C(C)C=CC=C(C)C(=O)N2)O4 (stereo not drawn) [Example 4] | less than 10% | – | – | – | – |
| CCCCCON=Cc1c2c(O)c3c(O)c(C)c4c(c3c1O)C(=O)C(C)(OC=CC(OC)C(C)C(OC(C)=O)C(C)C(O)C(C)C(O)C(C)C=CC=C(C)C(=O)N2)O4 (stereo not drawn) [Example 5] | less than 10% | 10 to 25 µg/mL | even more susceptible | – | – |
| CCCCCCCCON=Cc1c2c(O)c3c(O)c(C)c4c(c3c1O)C(=O)C(C)(OC=CC(OC)C(C)C(OC(C)=O)C(C)C(O)C(C)C(O)C(C)C=CC=C(C)C(=O)N2)O4 (stereo not drawn) [Example 6] | less than 10% | 10 to 25 µg/mL | even more susceptible | – | – |
| COC1C=COC2(C)Oc3c(C)c(O)c4c(O)c(c(C=NOCCc5ccccc5)c(O)c4c3C2=O)NC(=O)C(C)=CC=CC(C)C(O)C(C)C(O)C(C)C(OC(C)=O)C1C (stereo not drawn) [Example 13] | less than 10% | – | – | – | – |
| COC1C=COC2(C)Oc3c(C)c(O)c4c(O)c(c(C=NOCCCc5ccccc5)c(O)c4c3C2=O)NC(=O)C(C)=CC=CC(C)C(O)C(C)C(O)C(C)C(OC(C)=O)C1C (stereo not drawn) [Example 14] | less than 10% | 10 to 25 µg/mL | even more susceptible | – | – |
| COC1C=COC2(C)Oc3c(C)c(O)c4c(O)c(c(C=NOC(c5ccccc5)c5ccccc5)c(O)c4c3C2=O)NC(=O)C(C)=CC=CC(C)C(O)C(C)C(O)C(C)C(OC(C)=O)C1C (stereo not drawn) [Example 16] | less than 10% | – | – | – | – |
| CON=Cc1c2c(O)c3c(O)c(C)c4c(c3c1O)C(=O)C(C)(OC=CC(OC)C(C)C(OC(C)=O)C(C)C(O)C(C)C(O)C(C)C=CC=C(C)C(=O)N2)O4 (stereo not drawn) [O-methyl] | – | – | – | practically no effect | good antibacterial activity |
| COC1C=COC2(C)Oc3c(C)c(O)c4c(O)c(c(C=NOCCN5CCOCC5)c(O)c4c3C2=O)NC(=O)C(C)=CC=CC(C)C(O)C(C)C(O)C(C)C(OC(C)=O)C1C (stereo not drawn) [O-morpholinoethyl] | – | – | – | practically no effect | good antibacterial activity |
| COC1C=COC2(C)Oc3c(C)c(O)c4c(O)c(c(C=NO)c(O)c4c3C2=O)NC(=O)C(C)=CC=CC(C)C(O)C(C)C(O)C(C)C(OC(C)=O)C1C (stereo not drawn) [oxime of 3-formylrifamycin SV] | – | – | – | practically no effect | good antibacterial activity |
